The record followed here is ChEMBL document CHEMBL3286363, “Benzo[d]isothiazole 1,1-dioxide derivatives as dual functional inhibitors of 5-lipoxygenase and microsomal prostaglandin E(2) synthase-1” (Bioorg Med Chem Lett, 2014).

Structures are written as SMILES. Some results are limits rather than exact numbers.

Test [1] addresses T1, Polyunsaturated fatty acid 5-lipoxygenase (Homo sapiens, UniProt P09917).
T1 sequence (P09917 whole entry): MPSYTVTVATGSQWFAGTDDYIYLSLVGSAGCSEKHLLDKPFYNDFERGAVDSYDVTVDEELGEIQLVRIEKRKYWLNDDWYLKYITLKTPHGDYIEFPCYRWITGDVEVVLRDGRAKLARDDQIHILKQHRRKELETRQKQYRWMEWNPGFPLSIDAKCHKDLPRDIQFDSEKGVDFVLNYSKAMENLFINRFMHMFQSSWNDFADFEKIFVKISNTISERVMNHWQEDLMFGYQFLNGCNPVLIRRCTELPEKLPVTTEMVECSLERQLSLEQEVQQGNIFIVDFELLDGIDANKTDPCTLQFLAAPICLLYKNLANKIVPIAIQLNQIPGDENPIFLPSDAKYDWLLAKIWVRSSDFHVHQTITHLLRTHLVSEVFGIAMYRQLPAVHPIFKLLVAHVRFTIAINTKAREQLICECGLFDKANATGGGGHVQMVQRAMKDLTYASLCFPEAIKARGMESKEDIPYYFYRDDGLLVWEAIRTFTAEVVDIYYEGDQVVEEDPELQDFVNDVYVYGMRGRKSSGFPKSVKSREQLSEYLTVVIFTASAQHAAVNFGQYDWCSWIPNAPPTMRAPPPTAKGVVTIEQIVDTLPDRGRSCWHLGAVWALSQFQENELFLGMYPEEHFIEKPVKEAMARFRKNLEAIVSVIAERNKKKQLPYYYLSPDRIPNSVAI
Kind of test: Inhibition of human 5-LOX using arachidonic acid as substrate measured as H2DCFDA conversion to 2',7'-dichlorofluorescein preincubated for 10 mins by fluorescence spectrophotometric analysis.

The next test addresses T2, Prostaglandin E synthase (Homo sapiens, UniProt O14684).
T2 sequence (O14684 whole entry): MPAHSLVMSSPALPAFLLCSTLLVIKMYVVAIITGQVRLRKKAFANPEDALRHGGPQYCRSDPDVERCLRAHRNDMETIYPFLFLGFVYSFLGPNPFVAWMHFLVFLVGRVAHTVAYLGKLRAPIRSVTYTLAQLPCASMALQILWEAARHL
Kind of test: Inhibition of microsomal PGES-1 (unknown origin) assessed as PGH2 conversion to PGE2 after 1 min by enzyme immunoassay.

What is called IC50 is the point on the concentration scale where inhibition reaches its midpoint. Take `O=[N+]([O-])c1ccc2c(c1)S(=O)(=O)N=C2NCc1cccc(Br)c1`: the IC50 (in test [1]; on Prostaglandin E synthase) was over 50 µM throughout.

Regarding `O=[N+]([O-])c1ccc2c(c1)S(=O)(=O)N=C2Nc1cccc2c1OCO2`, the results for the IC50 (in test [1]; on Prostaglandin E synthase) were 14.9 µM and over 50 µM, respectively.

`COc1cccc(NC2=NS(=O)(=O)c3cc([N+](=O)[O-])ccc32)c1`: the IC50 was 0.24 µM in test [1] and 8.8 µM at Prostaglandin E synthase.

Regarding `O=[N+]([O-])c1ccc2c(c1)S(=O)(=O)N=C2Nc1cccc(Br)c1`, the 50% inhibitory concentration (IC50) was found to be 3.4 µM in test [1] and 7.3 µM on Prostaglandin E synthase.

Take `CC(C)c1cccc(NC2=NS(=O)(=O)c3cc([N+](=O)[O-])ccc32)c1`: the IC50 in test [1] is 0.25 µM; on Prostaglandin E synthase it was over 50 µM.

With `O=[N+]([O-])c1ccc2c(c1)S(=O)(=O)N=C2Nc1cccc(Cl)c1`, the IC50 in test [1] was over 50 µM; on Prostaglandin E synthase, 5.7 µM.

With `O=[N+]([O-])c1ccc2c(c1)S(=O)(=O)N=C2Nc1cccc2c(Br)cccc12`, the IC50 (in test [1]; on Prostaglandin E synthase) was over 50 µM throughout.

For the compound `COc1ccc(NC2=NS(=O)(=O)c3cc([N+](=O)[O-])ccc32)cc1OC`, the figures for the IC50 (in test [1]; on Prostaglandin E synthase) were 23.5 µM and over 50 µM, respectively.

On to `O=[N+]([O-])c1ccc2c(c1)S(=O)(=O)N=C2Nc1cccc2ccccc12`, for which the IC50 in test [1] came to 0.6 µM; at Prostaglandin E synthase it was 2.1 µM.

Consider `O=[N+]([O-])c1ccc2c(c1)S(=O)(=O)N=C2Nc1cccc(-c2ccccc2)c1`, for which the half-inhibitory concentration (IC50) in test [1] was 0.7 µM; on Prostaglandin E synthase it was over 50 µM.

In the case of `CC(C)(C)c1cccc(NC2=NS(=O)(=O)c3cc([N+](=O)[O-])ccc32)c1`, the results for the IC50 (in test [1]; on Prostaglandin E synthase) were 0.06 µM and over 50 µM, respectively.

In the case of `Cc1ccccc1NC1=NS(=O)(=O)c2cc([N+](=O)[O-])ccc21`, the IC50 (in test [1]; at Prostaglandin E synthase) was over 50 µM each time.

Turning to `O=[N+]([O-])c1ccc2c(c1)S(=O)(=O)N=C2Nc1cccc2ncccc12`, the IC50 in test [1] was over 50 µM; on Prostaglandin E synthase, 0.15 µM.

Take `O=[N+]([O-])c1ccc2c(c1)S(=O)(=O)N=C2Nc1ccccc1`: the IC50 turned out to be 8.6 µM in test [1] and 23.6 µM at Prostaglandin E synthase.

On to `COc1ccc(NC2=NS(=O)(=O)c3cc([N+](=O)[O-])ccc32)cc1`, for which the values for the IC50 (in test [1]; on Prostaglandin E synthase) were 12.3 µM and 16.9 µM, respectively.
